Some test systems named below: HL-60(TB) leukemia; NCI-H226 lung; DU-145 prostate; NCI/ADR-RES ovarian; UACC-62 melanoma; OVCAR-8 ovarian; SNB-75 CNS; SK-MEL-5 melanoma; HCT-15 colon; MOLT-4 leukemia.
Common to all, as to test: NCI tumour cell line growth inhibition, 48 h

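Five compound concentrations were applied to cells in 96-well plates for 48 hours; endpoints were derived by simple linear interpolation of the resulting dose-response curve. Here, GI50 denotes the concentration required for 50% inhibition of growth. The concentration for full growth arrest is given as TGI.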 A value given as a limit tells only on which side of the number the result lay.

Take `O=[N+]([O-])/C=C/c1c(Cl)cccc1Cl`: the TGI is over 100 µM in the assay on HL-60(TB) leukemia; 50.6 µM in the assay with NCI-H226 lung; 20.6 µM with DU-145 prostate; 12.5 µM in the assay with NCI/ADR-RES ovarian; 8.14 µM in the assay on UACC-62 melanoma; 4.13 µM in the assay with OVCAR-8 ovarian. Also, the TGI with SNB-75 CNS was found to be 32.4 µM; in the assay on SK-MEL-5 melanoma it was 8.78 µM; with HCT-15 colon it was 5.04 µM.
On to `COc1ccc2c(c1)[n+](=O)c(C(=O)c1cccs1)c(C(F)(F)F)n2[O-]`, for which the GI50 with MOLT-4 leukemia was 24.9 µM; in the assay on HL-60(TB) leukemia it was 4.04 µM; with NCI-H226 lung, 9.58 µM; in the assay with DU-145 prostate, 2.57 µM; in the assay with NCI/ADR-RES ovarian, 4.99 µM; in the assay on UACC-62 melanoma, 5.76 µM. Besides, the GI50 in the assay with OVCAR-8 ovarian is 2.79 µM; in the assay with SNB-75 CNS it was 9.11 µM; in the assay with SK-MEL-5 melanoma, 1.23 µM. Besides, the TGI in the assay on MOLT-4 leukemia was over 50 µM; in the assay on HL-60(TB) leukemia, over 50 µM; in the assay with NCI-H226 lung it was over 50 µM; in the assay on DU-145 prostate it was 12.7 µM; with NCI/ADR-RES ovarian, over 50 µM; in the assay on UACC-62 melanoma it was 19.5 µM. The TGI with OVCAR-8 ovarian was over 50 µM; in the assay on SNB-75 CNS, over 50 µM; with SK-MEL-5 melanoma, 5.91 µM.
As for `CN(C)C(=O)Nc1nc2cc(Cl)c(Cl)cc2[nH]1`, the GI50 in the assay on MOLT-4 leukemia is 1.01 µM; with HL-60(TB) leukemia, 0.241 µM; in the assay with NCI-H226 lung it was 2.83 µM; in the assay on DU-145 prostate it was 2.02 µM; in the assay on NCI/ADR-RES ovarian, 0.507 µM; in the assay with UACC-62 melanoma, 0.382 µM. Moreover, the GI50 with OVCAR-8 ovarian was 2.46 µM; in the assay on SNB-75 CNS, 3.08 µM; in the assay with SK-MEL-5 melanoma, 0.441 µM; in the assay on HCT-15 colon, 0.546 µM. Also, the TGI in the assay with MOLT-4 leukemia was over 70.4 µM; in the assay with NCI-H226 lung, over 100 µM; in the assay on DU-145 prostate it was 24.9 µM; in the assay on NCI/ADR-RES ovarian it was 9.37 µM; in the assay with UACC-62 melanoma it was over 100 µM; in the assay on OVCAR-8 ovarian it was over 60.4 µM. Also, the results for the TGI in the assay with SNB-75 CNS, in the assay with SK-MEL-5 melanoma and in the assay on HCT-15 colon were over 35.2 µM, over 100 µM and over 100 µM, respectively.
Consider `CCOc1ccc2c(-c3ccnc(Nc4cc(OC)cc(C(F)(F)F)c4)n3)cnn2n1`, for which the GI50 in the assay on MOLT-4 leukemia was over 25 µM; with HL-60(TB) leukemia it was over 25 µM; with NCI-H226 lung, over 25 µM; in the assay with DU-145 prostate, over 18.9 µM; with NCI/ADR-RES ovarian, 4.66 µM; in the assay on UACC-62 melanoma, over 10.9 µM. The GI50 in the assay on OVCAR-8 ovarian was over 15.4 µM; in the assay with SNB-75 CNS it was 15.1 µM; in the assay on SK-MEL-5 melanoma, over 14.8 µM; in the assay on HCT-15 colon it was over 23.3 µM. Also, the TGI in the assay with MOLT-4 leukemia, in the assay on HL-60(TB) leukemia, with NCI-H226 lung, with DU-145 prostate, in the assay on NCI/ADR-RES ovarian and with UACC-62 melanoma was over 25 µM each time. Also, the TGI with OVCAR-8 ovarian, with SNB-75 CNS, in the assay with SK-MEL-5 melanoma and with HCT-15 colon was over 25 µM in each case.
As to `COC(C)(C)[C@@H](O)[C@H](O)C[C@H](C)C1=C2CC[C@@H]3[C@@]4(C)CC[C@@H](OC(C)=O)C(C)(C)[C@@H]4C[C@@H](OC4OC(COC(C)=O)C(O)C(O)C4O)[C@@]3(C)[C@]2(C)CC1` (stereo partly drawn), the GI50 in the assay with MOLT-4 leukemia is 5.07 µM; with HL-60(TB) leukemia it was 3.6 µM; in the assay with NCI-H226 lung, 13.3 µM; with DU-145 prostate, 15 µM; with NCI/ADR-RES ovarian, 15.2 µM; with UACC-62 melanoma, 8.79 µM. In addition, the GI50 in the assay on OVCAR-8 ovarian is 12.8 µM; with SK-MEL-5 melanoma, 14.4 µM; in the assay on HCT-15 colon, 11 µM. Also, the TGI in the assay with MOLT-4 leukemia came out at 23.9 µM; in the assay with HL-60(TB) leukemia it was 16 µM; in the assay on NCI-H226 lung, 26.7 µM; in the assay on DU-145 prostate, 28.5 µM; in the assay on NCI/ADR-RES ovarian, 29.4 µM; in the assay on UACC-62 melanoma, 21.7 µM. Besides, the TGI in the assay on OVCAR-8 ovarian was 26.3 µM; in the assay on SNB-75 CNS, 21.2 µM; in the assay with SK-MEL-5 melanoma, 27.8 µM; with HCT-15 colon, 23.8 µM.
`COc1ccc2c(c1)nc(NNC(=O)c1cnccn1)c1cccn12`: the GI50 was 0.159 µM in the assay with MOLT-4 leukemia; 0.257 µM in the assay with HL-60(TB) leukemia; 0.321 µM in the assay with NCI-H226 lung; 0.156 µM with DU-145 prostate; 0.25 µM in the assay with NCI/ADR-RES ovarian; 0.268 µM with UACC-62 melanoma. Also, the GI50 in the assay on OVCAR-8 ovarian was 0.229 µM; in the assay on SNB-75 CNS it was 0.458 µM; with SK-MEL-5 melanoma, 0.27 µM; with HCT-15 colon, 0.0631 µM. Besides, the TGI in the assay with MOLT-4 leukemia is over 85.5 µM; in the assay with NCI-H226 lung, 2.72 µM; with DU-145 prostate, 6.3 µM; in the assay with NCI/ADR-RES ovarian, 3.26 µM; with UACC-62 melanoma, 2.99 µM; with OVCAR-8 ovarian, 3.05 µM. The TGI in the assay with SNB-75 CNS came out at 3.06 µM; in the assay with SK-MEL-5 melanoma, 1.22 µM; with HCT-15 colon, 43 µM.
For the compound `O=[N+]([O-])c1cc[n+]([O-])c2ccccc12`, the GI50 with MOLT-4 leukemia is 1.9 µM; with HL-60(TB) leukemia, 1.05 µM; in the assay on NCI-H226 lung it was 0.311 µM; in the assay on DU-145 prostate, 0.0392 µM; in the assay with NCI/ADR-RES ovarian, 0.965 µM; in the assay with UACC-62 melanoma, 0.231 µM. The GI50 in the assay on OVCAR-8 ovarian was 0.33 µM; with SNB-75 CNS, 0.176 µM; with SK-MEL-5 melanoma, 0.184 µM; in the assay with HCT-15 colon, 0.279 µM. Also, the TGI in the assay with MOLT-4 leukemia amounted to 6.35 µM; with HL-60(TB) leukemia, 4.29 µM; in the assay with NCI-H226 lung it was 1.38 µM; with DU-145 prostate, 0.173 µM; in the assay with NCI/ADR-RES ovarian, 4.86 µM; in the assay with UACC-62 melanoma, 0.698 µM. Moreover, the TGI was 2.12 µM in the assay with OVCAR-8 ovarian, 0.465 µM in the assay on SNB-75 CNS, 0.437 µM in the assay on SK-MEL-5 melanoma and 1.42 µM with HCT-15 colon.
As for `CN(C)Cc1ccc(-c2cc3onc(-c4ccccc4)c3c(=O)n2C)cc1`, the TGI is 49.2 µM in the assay with MOLT-4 leukemia; 4.56 µM in the assay with HL-60(TB) leukemia; over 100 µM in the assay with NCI-H226 lung; 85.3 µM with DU-145 prostate; over 100 µM with NCI/ADR-RES ovarian; 75 µM with UACC-62 melanoma. Besides, the TGI is over 100 µM in the assay with OVCAR-8 ovarian, 47.1 µM in the assay on SK-MEL-5 melanoma and 50.2 µM with HCT-15 colon.
With `N#Cc1nc(-c2ccc(F)cc2)oc1S(=O)(=O)N1CCCCC1`, the GI50 in the assay on MOLT-4 leukemia was 2.22 µM; in the assay with HL-60(TB) leukemia, 2.54 µM; in the assay with NCI-H226 lung it was 19.1 µM; in the assay with DU-145 prostate it was 1.81 µM; in the assay with NCI/ADR-RES ovarian, 4.97 µM; in the assay with UACC-62 melanoma it was 1.62 µM. The GI50 in the assay with OVCAR-8 ovarian is 3.19 µM; in the assay on SNB-75 CNS it was 11.8 µM; in the assay with SK-MEL-5 melanoma it was 1.81 µM; in the assay with HCT-15 colon it was 1.59 µM. The TGI was 8.21 µM in the assay on MOLT-4 leukemia; 7.02 µM in the assay with HL-60(TB) leukemia; 42.1 µM in the assay on NCI-H226 lung; 3.24 µM in the assay with DU-145 prostate; over 100 µM with NCI/ADR-RES ovarian; 3.01 µM in the assay with UACC-62 melanoma. In addition, the TGI is 24.1 µM in the assay on OVCAR-8 ovarian, 25 µM with SNB-75 CNS, 3.36 µM with SK-MEL-5 melanoma and 3.37 µM with HCT-15 colon.
